In publication doi:10.1101/2025.07.01.662521v3, “Ligand-induced Conformational Plasticity of the CTLH E3 Ligase Receptor GID4” (biorxiv, 2026):
pKd: −log10 of the molar value. Like-named read-outs stand apart in the source and are kept apart here.

Key:
[1] = target: T1, GID4 (Homo sapiens, UniProt Q8IVV7); set-up: Differential scanning fluorimetry, thermal shift of GID4; settings: binder
T1 construct: residues 116-300, N-terminal 6xHis-SUMO tag (DSF construct)
T1 sequence (Q8IVV7 1-300): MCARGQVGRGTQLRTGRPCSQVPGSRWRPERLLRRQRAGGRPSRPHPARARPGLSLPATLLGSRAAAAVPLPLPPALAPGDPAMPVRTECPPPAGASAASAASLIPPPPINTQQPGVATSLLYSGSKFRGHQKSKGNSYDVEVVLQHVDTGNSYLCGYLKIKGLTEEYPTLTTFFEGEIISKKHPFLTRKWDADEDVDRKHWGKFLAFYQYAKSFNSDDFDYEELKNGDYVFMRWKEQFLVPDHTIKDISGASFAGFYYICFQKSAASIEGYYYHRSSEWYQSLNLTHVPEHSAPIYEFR
Method: Following the identification of the binding pocket and the key interactions of the initial fragment, we initiated the synthesis of a series of analogs to explore the structure-activity relationship (SAR) (Table 1). The resulting changes in affinity were evaluated using surface plasmon resonance (SPR) and differential scanning fluorimetry (DSF). […] In the next step, we replaced the 3-Cl group to find an additional potency boost. […] MATERIALS AND METHODS Recombinant Protein Expression and Purification GID4 Expression and Purification Human Glucose-induced degradation protein 4 homolog (Gid4, UniProt ID: Q8IVV7) residues 124-289 were cloned into a vector to generate a N-terminal 6xHis-SUMO-tag for crystallography studies, residues 116-300 were cloned into a vector to generate a N-terminal 6xHis-SUMO-tag for DSF studies and residues 116-300 were cloned into a vector to generate a N-terminal Strep-SUMO-3C-6xHis-AVI-tag for SPR experiments. All constructs were verified by sequencing. Protein was expressed by transforming plasmid into chemically competent recombinant E. coli BL21(DE3) strain. E coli was cultured in LB medium supplemented with 50 µg/mL kanamycin in shaker flasks at 37 °C and 160 rpm. Once an optical density at 600 nm (OD600) reached 0.5-0.6, protein expression was induced by an addition of 0.1 mM IPTG.

[2] = target: T2, GID4 (Homo sapiens, UniProt Q8IVV7); assay: biochemical; set-up: SPR binding affinity to immobilized biotinylated GID4; settings: read-out: KD by SPR
T2 construct: residues 116-300; N-terminal Strep-SUMO-3C-6xHis-Avi, HRV-3C cleaved, Avi-tag kept and biotinylated; E. coli BL21(DE3)
T2 sequence (Q8IVV7 116-300): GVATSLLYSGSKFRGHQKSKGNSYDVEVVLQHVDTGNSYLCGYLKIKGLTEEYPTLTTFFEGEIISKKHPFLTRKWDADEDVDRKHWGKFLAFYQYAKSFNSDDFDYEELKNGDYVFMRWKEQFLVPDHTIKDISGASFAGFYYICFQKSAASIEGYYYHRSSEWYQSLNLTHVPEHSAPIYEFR
Method: (§1) Following the identification of the binding pocket and the key interactions of the initial fragment, we initiated the synthesis of a series of analogs to explore the structure-activity relationship (SAR) (Table 1). The resulting changes in affinity were evaluated using surface plasmon resonance (SPR) and differential scanning fluorimetry (DSF). […] In the next step, we replaced the 3-Cl group to find an additional potency boost. […] All constructs were verified by sequencing. Protein was expressed by transforming plasmid into chemically competent recombinant E. coli BL21(DE3) strain. E coli was cultured in LB medium supplemented with 50 µg/mL kanamycin in shaker flasks at 37 °C and 160 rpm. Once an optical density at 600 nm (OD600) reached 0.5-0.6, protein expression was induced by an addition of 0.1 mM IPTG.

[3] = target: T2, GID4; assay: SPR; type: binding
[4] = target: T3, HiBiT-GID4(FL) (Homo sapiens, UniProt Q8IVV7); set-up: species or system HEK293T; HiBiT cellular thermal shift of full-length GID4, luminescence, delta Tagg; settings: binder
T3 construct: full length, N-terminal HiBiT tag, stably expressed in HEK293T (piggyBac)
T3 sequence (Q8IVV7 1-300): T1 sequence (Q8IVV7 1-300)
Text: (§2) Following the confirmation of cellular target engagement, we assessed the ability of GID4 to induce targeted protein degradation by synthesizing a panel of GID4-BRD4 bifunctional compounds. We utilized our lead ligand 14 together with a well-known BRD4 ligand JQ1, exploring a range of standard linkers with varying exit vectors and lengths, including rigid alkyl, and flexible PEG (2x, or 4xPEG) (Figure 6A). […] We assessed binary interactions with GID4 and BRD4, as well as the ternary complex formation by SPR and HTRF (Figure 6 and Table S2). All bifunctional compounds, except for 26, retained high affinity for BRD4 (K ^BRD4 =0.006-0.02 µM). […] Crucially, all degraders equipped with the active JQ1 warhead mediated ternary complex formation between GID4 and BRD4 (Figure 6 B-C). We further utilized NanoBRET assay to confirm BRD4 engagement, in both intact and lysed HEK293T cells (Table S2). […] This discrepancy indicates potential permeability limitations or active efflux of the bifunctional molecules. Despite successful BRD4 engagement, none of the degraders stabilized GID4 in the intracellular engagement assay, resulting in negative ΔTagg values (Table S2). This was consistent across all compounds, independent of linker length, composition, or exit vector. Consequently, no degradation of BRD4 was observed (Figures S11–S13), highlighting that while ternary complex formation is achievable in vitro, the physicochemical properties of these GID4-based PROTACs currently limit their intracellular efficacy.

[5] = target: BRD4 (Homo sapiens, UniProt O60885); set-up: SPR binary binding affinity to BRD4; settings: binder
Text: as §2

[6] = target: T2, GID4; set-up: SPR binding affinity to immobilized biotinylated GID4; settings: binder
Method: as §1

[7] = target: T2, GID4; assay: SPR, steady-state affinity; type: binding
Text: SPR, steady-state affinity on GID4

With COCCOCCC1CCCN(C(=O)c2cc(-c3cc(F)cc(N=C(N)N4CCC(C)(C)CC4)c3)oc2C)C1 (racemic) [compound 21] the “ΔTm by DSF (°C)” value [1] was 6.8 ± 0.04 °C and the pKd [2] was 7.30.

For CC1CCN(C(N)=Nc2cc(F)cc(Cl)c2)CC1 [compound 6], the “ΔTm by DSF (°C)” value [1] was 3.2 ± 0.08 °C and the pKd ([3]; read-out: KD) was 5.53.

With CC1CCCN(C(N)=Nc2cc(F)cc(Cl)c2)C1 (stereo not shown) [compound 7] the “ΔTm by DSF (°C)” value [1] was 3.3 ± 0.03 °C and the pKd ([3]; read-out: KD) was 5.39.

CC1CCCCN1C(N)=Nc1cc(F)cc(Cl)c1 (stereo not shown) [compound 5] was tested, and the “ΔTm by DSF (°C)” value [1] was 3.3 ± 0.04 °C and the pKd ([3]; read-out: KD) was 5.54.

CC(=O)N1CCN(CC2CCCN(C(=O)c3cc(-c4cc(F)cc(N=C(N)N5CCC(C)(C)CC5)c4)oc3C)C2)CC1 (racemic) [compound 23] was tested, and the “ΔTm by DSF (°C)” value [1] was 6.4 ± 0.02 °C and the pKd [2] was 7.05.

Compound Cc1ccc(-c2cc(F)cc(N=C(N)N3CCC(C)CC3)c2)o1 [compound 9] has a pKd ([3]; PBS pH 7.4, 0.05% P-20, 1 mM DTT, 1% DMSO, biotinylated GID4 immobilised on SA chip, read-out: KD) of 6.14.

Cc1oc(-c2cc(F)cc(/N=C(/N)N3CCC(C)(C)CC3)c2)cc1C(=O)N1CCCC(OCCOCCOCCNC(=O)C[C@@H]2N=C(c3ccc(Cl)cc3)c3c(sc(C)c3C)-n3c(C)nnc32)C1 (stereo partly shown) [compound 28, 28] was tested, and the “GID4 intracellular target engagement ΔTagg [ºC]” value [4] was -2.6 ± 3.7 °C and the pKd [5] was 7.80.

With Cc1oc(-c2cc(F)cc(N=C(N)N3CCC(C)(C)CC3)c2)cc1C(=O)Nc1ccccc1 [compound 13] the “ΔTm by DSF (°C)” value [1] was 3.9 ± 0.03 °C and the pKd [2] was 5.84.

In the case of Cc1oc(-c2cc(F)cc(/N=C(/N)N3CCC(C)(C)CC3)c2)cc1C(=O)N1CCC(CN2CCN(C(=O)C[C@@H]3N=C(c4ccc(Cl)cc4)c4c(sc(C)c4C)-n4c(C)nnc43)CC2)CC1 [compound 24, 24], the pKd [6] was 6.49, the “GID4 intracellular target engagement ΔTagg [ºC]” value [4] was -1.7 ± 1.2 °C and the pKd [5] was 7.89.

CNC(=O)c1cc(-c2cc(F)cc(N=C(N)N3CCC(C)(C)CC3)c2)oc1C [compound 11] was tested, and the “ΔTm by DSF (°C)” value [1] was 4.8 ± 0.07 °C and the pKd [2] was 6.51.

In the case of NC(=Nc1cc(F)cc(Cl)c1)N1CCCCC1 [compound 4], the “ΔTm by DSF (°C)” value [1] was 2.8 ± 0.08 °C and the pKd ([3]; read-out: KD) was 5.09.

With COC1CCN(C(=O)c2cc(-c3cc(F)cc(N=C(N)N4CCC(C)(C)CC4)c3)oc2C)CC1 [compound 18] the “ΔTm by DSF (°C)” value [1] was 7.1 ± 0,04 °C and the pKd [2] was 6.89.

In the case of Cc1oc(-c2cc(F)cc(/N=C(/N)N3CCC(C)(C)CC3)c2)cc1C(=O)N1CCN(C)CC1 [compound 15, 15], the “ΔTm by DSF (°C)” value [1] was 5.9 ± 0.08 °C and the pKd [2] was 6.92.

In the case of NC(=Nc1cccc(F)c1)N1CCCCC1 [compound 3], the “ΔTm by DSF (°C)” value [1] was 3.3 ± 0.06 °C and the pKd ([3]; read-out: KD) was 4.92.

For Cc1oc(-c2cc(F)cc(N=C(N)N3CCC(C)(C)CC3)c2)cc1C(=O)N(C)C [compound 12], the “ΔTm by DSF (°C)” value [1] was 6.9 ± 0.18 °C and the pKd [2] was 7.22.

COC1CCCN(C(=O)c2cc(-c3cc(F)cc(N=C(N)N4CCC(C)(C)CC4)c3)oc2C)C1 (racemic) [compound 19] was tested, and the “ΔTm by DSF (°C)” value [1] was 7.1 ± 0.01 °C and the pKd [2] was 7.30.

In the case of CC(=O)N1CCN(CC2CCN(C(=O)c3cc(-c4cc(F)cc(N=C(N)N5CCC(C)(C)CC5)c4)oc3C)CC2)CC1 [compound 22], the “ΔTm by DSF (°C)” value [1] was 5.9 ± 0.04 °C and the pKd [2] was 6.85.

In the case of Cc1oc(-c2cc(F)cc(N=C(N)N3CCC(C)(C)CC3)c2)cc1C(=O)N1CCCCC1 [compound 14], the “ΔTm by DSF (°C)” value [1] was 7.7 ± 0.05 °C and the pKd ([3]; read-out: KD^GID4) was 7.52.

With COCCOCCC1CCN(C(=O)c2cc(-c3cc(F)cc(N=C(N)N4CCC(C)(C)CC4)c3)oc2C)CC1 [compound 20] the “ΔTm by DSF (°C)” value [1] was 6.5 ± 0,03 °C and the pKd [2] was 7.30.

With Cc1oc(-c2cc(F)cc(/N=C(/N)N3CCC(C)(C)CC3)c2)cc1C(=O)N1CCC(CN2CCN(C(=O)C[C@H]3N=C(c4ccc(Cl)cc4)c4c(sc(C)c4C)-n4c(C)nnc43)CC2)CC1 [compound 26] the “GID4 intracellular target engagement ΔTagg [ºC]” value [4] was -2 ± 0.6 °C and the pKd ([3]; PBS pH 7.4, 0.05% P-20, 1 mM DTT, 1% DMSO, biotinylated GID4 immobilised on SA chip, read-out: KD^GID4) was 6.20.

Cc1oc(-c2cc(F)cc(/N=C(/N)N3CCC(C)(C)CC3)c2)cc1C(=O)N1CCCC(CN2CCN(C(=O)C[C@@H]3N=C(c4ccc(Cl)cc4)c4c(sc(C)c4C)-n4c(C)nnc43)CC2)C1 (stereo partly shown) [compound 25, 25] was tested, and the pKd [6] was 6.30, the “GID4 intracellular target engagement ΔTagg [ºC]” value [4] was -1.4 ± 0.3 °C and the pKd [5] was 7.70.

NC(=Nc1ccccc1)N1CCCCC1 [compound 1] was tested, and the “ΔTm by DSF (°C)” value [1] was 1.0 ± 0.06 °C and the pKd [7] was 4.10.

NC(=Nc1cccc(Cl)c1)N1CCCCC1 [compound 2] was tested, and the “ΔTm by DSF (°C)” value [1] was 1.6 ± 0.13 °C and the pKd ([3]; read-out: KD) was 4.64.

With Cc1oc(-c2cc(F)cc(/N=C(/N)N3CCC(C)(C)CC3)c2)cc1C(=O)N1CCOCC1 [compound 16, 16] the “ΔTm by DSF (°C)” value [1] was 6.2 ± 0.01 °C and the pKd [2] was 7.05.

Cc1oc(-c2cc(F)cc(/N=C(/N)N3CCC(C)(C)CC3)c2)cc1C(=O)N1CCC(OCCOCCOCCOCCOCCNC(=O)C[C@@H]2N=C(c3ccc(Cl)cc3)c3c(sc(C)c3C)-n3c(C)nnc32)CC1 [compound 29, 29] was tested, and the “GID4 intracellular target engagement ΔTagg [ºC]” value [4] was 0.1 ± 0.4 °C and the pKd [5] was 8.22.

Cc1ccc(-c2cc(F)cc(N=C(N)N3CCCCC3C)c2)o1 (stereo not shown) [compound 8] was tested, and the “ΔTm by DSF (°C)” value [1] was 4.3 ± 0.05 °C and the pKd ([3]; read-out: KD) was 6.03.

In the case of Cc1oc(-c2cc(F)cc(/N=C(/N)N3CCC(C)(C)CC3)c2)cc1C(=O)N1CCCC(OCCOCCOCCOCCOCCNC(=O)C[C@@H]2N=C(c3ccc(Cl)cc3)c3c(sc(C)c3C)-n3c(C)nnc32)C1 (stereo partly shown) [compound 30, 30], the “GID4 intracellular target engagement ΔTagg [ºC]” value [4] was -0.3 ± 1.0 °C and the pKd [5] was 8.22.
